In patent publication US9272998B1, “Modulation of c-FOS and BDNF protein expression in pentylenetetrazole-kindled mice following the treatment with novel anti-epileptic compound HHL-6” (priority 2015, dated 2016):

What was measured:
[1] = tested on: BDNF protein expression; assay: BDNF immunohistochemistry of brain sections of PTZ-kindled mice (ImageJ densitometry); format: in vivo; conditions: cortical region, kindled animals; normal control 29.53±3.9, PTZ control 57.6±13.6
Procedure: (§1) Animals were sacrificed 24 hrs after establishment of complete kindling. Cardiac perfusion with chilled PBS buffer (NaCl—8 g, KCl—0.2 g, Na2HPO4×12 H2O—2.85 g, KH2PO4—0.2 g; pH 7.4) containing heparin was performed. Whole brains were removed, post-fixed in ice-cold 2% PFA for 24 hrs at +4° C. and then placed in 30% sucrose until brain samples sank to the bottom of the container. The samples were stored at −80° C. until further processing.
Frozen brain samples were cut into […] thick sections and directly taken on poly L-lysine coated slides and kept at −20° C. overnight. The cryosections were incubated overnight at 4° C. with primary antibody i.e. purified c-Fos (4): sc-52 for c-Fos detection and BDNF (N-20): sc-546 for BDNF detection independently. […]
Expression of c-Fos and BDNF protein observed under the fluorescent microscope was analyzed by using software ImageJ (NIH, USA). […] For each image, background density was determined and subtracted; the remaining particles were considered to represent c-Fos or BDNF expression. […]
(§2) Data is presented as mean±standard error of the mean (S.E.M.). The seizure activity was analyzed by nonparametric Mann-Whitney U tests. The immunostaining data was analyzed by one-way ANOVA with post hoc Dunnett's multiple comparison tests. Sequential differences among means were calculated at the level of P<0.05 using the SPSS version 10.

[2] = tested on: c-Fos protein expression; assay: c-Fos immunohistochemistry of brain sections of PTZ-kindled mice (ImageJ densitometry); format: in vivo; conditions: for Fluorescence intensity of c-Fos, Amygdala / Fluorescence intensity of c-Fos, Thalamus / Fluorescence intensity of c-Fos, Hippocampus / Fluorescence intensity of c-Fos, Cortex: PTZ-kindled mice, HHL-6 20 mg/kg, DZP 7.5 mg/kg, mean ± S.E.M.; for Fluorescence intensity of c-Fos, Amygdala: normal control 12.23 ± 2.9, PTZ control 38.17 ± 5.08; for Fluorescence intensity of c-Fos, Thalamus: normal control 12.58 ± 1.79, PTZ control 45.36 ± 3.70; for Fluorescence intensity of c-Fos, Hippocampus: normal control 15.29 ± 2.3, PTZ control 44.27 ± 7.43; for Fluorescence intensity of c-Fos, Cortex: normal control 16.31 ± 1.24, PTZ control 40.69 ± 8.2; for c-Fos staining intensity (FIG. 4B): cortical region, kindled animals, normal control 16.31±1.24, PTZ control 40.69±8.2
Procedure: as §1
Frozen brain samples were cut into […] thick sections and directly taken on poly L-lysine coated slides and kept at −20° C. overnight. The cryosections were incubated overnight at 4° C. with primary antibody i.e. purified c-Fos (4): sc-52 for c-Fos detection and BDNF (N-20): sc-546 for BDNF detection independently. This was followed by re-incubation with secondary antibody i.e. biotinylated goat anti-mouse IgG (Alexa Flour) for 1 hour at room temperature in dark. The stained sections were observed under fluorescent microscope (Nikon ECLIPSE TE2000-S, Japan). Since the specificity of the primary antibody is very critical therefore, in order to determine specificity, negative controls were also processed by eliminating the step where sections were incubated with their respective primary antibody.
Expression of c-Fos and BDNF protein observed under the fluorescent microscope was analyzed by using software ImageJ (NIH, USA). The image processing program ImageJ helps in multiple imaging system data comparisons taking density (densitometry) in consideration to analyze the images. For each image, background density was determined and subtracted; the remaining particles were considered to represent c-Fos or BDNF expression. Data were obtained from two sections per mouse (n=12 animals per group) and presented as means±S.E.M. cFos and BDNF immunoreactivity in the amygdala, cortex, dorsal hippocampus, and thalamus were centered approximately around 3.6 mm posterior to bregma. Within the hippocampus region, measurements were performed over the layer extending from sub-regions CA1-CA3.
as §2

[3] = HHL-6 20 mg/kg; 30 min and 1 h after injection
Procedure: This was examined by Traction test. The forepaws of a mouse were placed on a small twisted wire rigidly supported above a bench top. Normal mice grasped the wire with forepaws and when allowed to hang free, placed at least one hind foot on the wire within 5 seconds. Inability to put up at least one hind foot constituted failure to the traction. The test was conducted at 30 min and 1 h after the injection of saline, diazepam or HHL-6.

[4] = observed 1-2 hr after treatment
Text: Animals were transferred into individual cages the day before the experiments to allow them to acclimatize to the new environment. […] For behavioral studies, blind-testing was employed i.e., the experimenter conducting this study was blinded to the given treatment.

[5] = tested on: scPTZ-induced seizure in mice; assay: subcutaneous PTZ-induced seizure test (scPTZ); format: in vivo; conditions: for mortality in scPTZ test: 20 mg/kg of HHL-6 or 7.5 mg/kg of diazepam, PTZ-control 100% mortality; for protection against scPTZ induced mortality / Onset of jerks / Rearing & falling: diazepam 7.5 mg/kg; for protection against scPTZ induced mortality: mortality within 24 hours; for Onset of jerks / Rearing & falling: i.p. 30 min before s.c. PTZ 90 mg/kg, mean of 6 mice; for Onset of jerks: PTZ-control 190; for Rearing & falling: PTZ-control 640
Procedure: (§3) Albino male NMRI mice weighing 20-25 grams were used. The animals were housed under standard laboratory conditions i.e. 12:12 hr light: dark cycle, temperature (21±2° C.) and air humidity controlled environment. Food and water were provided ad libitum. All experiments were carried out in accordance to the International Guidelines for the Use and Care of Laboratory Animals and approved by Scientific Advisory Committee on Animal Care, Use, and Standards of our institute.
The anticonvulsant effect of HHL-6 using scPTZ test was evaluated by administering 20 mg/kg dose to groups of 6 mice at least 30 min before subcutaneous administration of convulsive dose of PTZ (90 mg/kg). After PTZ administration, animals were isolated and observed for an hour for the presence or absence of different types of seizure patterns. Latency to PTZ-induced threshold seizures was also calculated. The latency to threshold seizure is defined as the interval between the time of the PTZ-injection and the occurrence of first episode of threshold seizure. Protection of testing material against PTZ-induced mortality within 24 hours was also evaluated. In all experiments, diazepam (7.5 mg/kg i.p) was used as positive control.
In Table 3, the HHL-6 and diazepam were injected intraperitoneally 30 min before the administration of subcutaneous pentylenetetrazole (90 mg/kg) in their respective groups. Values are presented as mean for the duration of tonic seizure for 6 mice.

[6] = tested on: scPTZ-induced kindling in mice; assay: PTZ-induced kindling test (Racine's scale seizure score); format: in vivo
Procedure: as §3
Sub-convulsive dose (50 mg/kg) of PTZ was given subcutaneously to all groups (n=12/group) except normal control after every 48 hours. In normal control group, instead of PTZ, saline was used. The drug control groups received daily administration of diazepam (7.5 mg/kg). The test group was treated with the HHL-6 (20 mg/kg) once daily. Racine's scale was used to score the seizure activity such as stage 0: no response; stage 1: ear and facial twitching; stage 2: convulsive wave through the body; stage 3: myoclonic jerks, stage 4: clonic-tonic convulsions, turnover into side position; stage 5: generalized clonic-tonic seizures, loss of postural control. Animals showing score 4 or 5 were considered to be fully kindled.

[7] = HHL-6 20 mg/kg, PTZ 90 mg/kg s.c.
[8] = PTZ 90 mg/kg s.c., HHL-6 20 mg/kg

SMILES: CCCCCC(=O)NCCc1c(C(C)=O)[nH]c2c(OC)cccc12 [HHL-6, 2-acetyl-3-(2-hexanoylamidoethyl)-7-methoxyindole]
- BDNF staining intensity (FIG. 5B) [1]: 26.2±5.4
- Fluorescence intensity of c-Fos, Amygdala [2]: 15.21 ± 2.3 arbitrary unit
- Fluorescence intensity of c-Fos, Thalamus [2]: 15.58 ± 3.74 arbitrary unit
- Fluorescence intensity of c-Fos, Hippocampus [2]: 16.92 ± 2.75 arbitrary unit
- Fluorescence intensity of c-Fos, Cortex [2]: 18.24 ± 3.2 arbitrary unit
- c-Fos staining intensity (FIG. 4B) [2]: 18.24±3.2
- muscle relaxant activity (traction test) [3]: did not observed muscle relaxant activity
- alteration in normal behavior pattern [4]: did not show any alteration in their normal behavior pattern
- hyper-excitability or sedation [4]: not observed
- protection from jerks [5, 7]: unable to provide protection from jerks
- protection from tonic fore limb and hind limb seizures [5, 7]: 100%
- mortality in scPTZ test ([5]; PTZ 90 mg/kg s.c.): Mortality was not demonstrated
- protection against scPTZ induced mortality [5, 8]: 100%
- Onset of jerks ([5]; HHL-6 20 mg/kg): 460 s
- Rearing & falling ([5]; HHL-6 20 mg/kg): 0 s
- seizure score (kindling) after treatment day 13 ([6]; HHL-6 20 mg/kg, PTZ 50 mg/kg on alternate days, 18 doses in 36 days): 0
- seizure score (kindling) ([6]; treatment day 9 till 13, HHL-6 20 mg/kg once daily, PTZ 50 mg/kg s.c. every 48 hours, PTZ-kindled control average 4.9): 0.3

SMILES: CN1C(=O)CN=C(c2ccccc2)c2cc(Cl)ccc21 [diazepam, reference compound]
- BDNF staining intensity (FIG. 5B) [1]: 31.5±7.6
- Fluorescence intensity of c-Fos, Amygdala [2]: 14.94 ± 1.99 arbitrary unit
- Fluorescence intensity of c-Fos, Thalamus [2]: 18.33 ± 2.19 arbitrary unit
- Fluorescence intensity of c-Fos, Hippocampus [2]: 20.09 ± 3.77 arbitrary unit
- Fluorescence intensity of c-Fos, Cortex [2]: 17.28 ± 3.6 arbitrary unit
- c-Fos staining intensity (FIG. 4B) [2]: 17.28±4.6
- mortality in scPTZ test ([5]; PTZ 90 mg/kg s.c.): Mortality was not demonstrated
- protection against scPTZ induced mortality [5, 8]: 100%
- Onset of jerks ([5]; HHL-6 20 mg/kg): 0 s
- Rearing & falling ([5]; HHL-6 20 mg/kg): 0 s
- seizure pattern till the end of the kindling protocol ([6]; diazepam 7.5 mg/kg daily, PTZ 50 mg/kg s.c. every 48 hours): did not exhibit any seizure pattern
